Reference: patent publication US20040049056A1 (priority 2000, published 2004)
Where two headings read alike, the source gives them in different places.

How the values were obtained:
Pyricularia oryzae = format: cell-based
Fusarium nivale = format: cell-based
Septoria tritici = format: cell-based
Pythium aphanidermatum = format: cell-based
Pytophthora infestans = format: cell-based
plant pathogenic fungi = assay: Assay for antifungal activity of esculetin compounds (method similar to Assay example 1); format: cell-based
Source text: The activities of the following esculetin compounds was confirmed by a method similar to Assay example 1.

plants = assay: Assay for herbicidal activity of esculetin compounds (method similar to Assay example 2); format: in vivo
Source text: The activities of the following esculetin compounds was confirmed by a method similar to Assay example 2.

| Structure (SMILES) | Rate of growth suppression (%) P.o (Pyricularia oryzae; 10 mg/L, 3 DAT) | Rate of growth suppression (%) F.niv (Fusarium nivale) | Rate of growth suppression (%) S.t (Septoria tritici) | Rate of growth suppression (%) P.a (Pythium aphanidermatum) | Rate of growth suppression (%) P.i (Pytophthora infestans; 10 mg/L, 4 DAT) | Rate of growth suppression (%) P.o (Pyricularia oryzae) | Rate of growth suppression (%) P.i (Pytophthora infestans) | melting point [°C] | Antifungal activity (plant pathogenic fungi) | Herbicidal activity (plants) |
| --- | --- | --- | --- | --- | --- | --- | --- | --- | --- | --- |
| O=Cc1cc(O)c(OCc2ccccc2)cc1O [Compound (b), 2,5-dihydroxy-4-benzyloxybenzaldehyde] | + (10 to 60%) | ++ (key: −: less than 10%; +: 10 to 60%; ++: more than 60%) | + (key: −: less than 10%; +: 10 to 60%; ++: more than 60%) | ++ (key: −: less than 10%; +: 10 to 60%; ++: more than 60%) | + (10 to 60%) |  |  |  |  |  |
| O=Cc1cc2c(cc1O)OCO2 [Compound (d), 4,5-methylenedioxysalicylaldehyde] |  | + (key: −: less than 10%; +: 10 to 60%; ++: more than 60%) | + (key: −: less than 10%; +: 10 to 60%; ++: more than 60%) | + (key: −: less than 10%; +: 10 to 60%; ++: more than 60%) |  | + (key: −: less than 10%; +: 10 to 60%; ++: more than 60%) | + (key: −: less than 10%; +: 10 to 60%; ++: more than 60%) | 125 to 126 |  |  |
| CC1(C)Oc2cc(O)c(C=O)cc2O1 [Compound (e), 2,2-dimethyl-5-formyl-6-hydroxy-1,3-benzodioxol] | + (10 to 60%) | + (key: −: less than 10%; +: 10 to 60%; ++: more than 60%) | + (key: −: less than 10%; +: 10 to 60%; ++: more than 60%) | + (key: −: less than 10%; +: 10 to 60%; ++: more than 60%) | + (10 to 60%) |  |  | 104 to 105 |  |  |
| CC(=O)Oc1cc(OCc2ccccc2)c(OC(C)=O)cc1C=O [Compound (c), 2,5-diacetoxy-4-benzyloxybenzaldehyde] | + (10 to 60%) | ++ (key: −: less than 10%; +: 10 to 60%; ++: more than 60%) | ++ (key: −: less than 10%; +: 10 to 60%; ++: more than 60%) | + (key: −: less than 10%; +: 10 to 60%; ++: more than 60%) | + (10 to 60%) |  |  |  |  |  |
| Oc1ccc(O)c(OCc2ccccc2)c1 [Compound (a), 2-benzyloxy-1,4-hydroquinone] |  | + (key: −: less than 10%; +: 10 to 60%; ++: more than 60%) | + (key: −: less than 10%; +: 10 to 60%; ++: more than 60%) | + (key: −: less than 10%; +: 10 to 60%; ++: more than 60%) |  | ++ (key: −: less than 10%; +: 10 to 60%; ++: more than 60%) | + (key: −: less than 10%; +: 10 to 60%; ++: more than 60%) |  |  |  |
| CC1(C)Oc2cc3ccc(=O)oc3cc2O1 [esculetin acetonide] |  |  |  |  |  |  |  |  | confirmed | confirmed |
| O=c1ccc2cc(O)c(OCc3ccccc3)cc2o1 [7-benzyloxy-6-hydroxycoumarin] |  |  |  |  |  |  |  |  | confirmed | confirmed |
| O=c1ccc2cc3c(cc2o1)OCO3 [methylenedioxycoumarin] |  |  |  |  |  |  |  |  | confirmed | confirmed |
